For orientation: inhibition means the change of the read-out against control, counted positive when it falls. Broadly, the inhibition in vivo is the share of the control response that was lost under treatment. A lower inhibition in vivo goes with little suppression.

The target of test [1] is T1, human recombinant dopamine transporter (Homo sapiens, UniProt Q01959).
T1 construct: expressed in transfected cells; host or cells: CHO-K1
Nature of the test: Dopamine transporter reuptake inhibition assay ([3H]Dopamine uptake). It is filed as cell-based. The settings on record: 100 nM; CHO-K1 cells with human recombinant dopamine transporter; read-out: Inhibition % at 100 nM DA reuptake. On the procedure:
Dopamine Transporter Reuptake Inhibition Assay
CHO-K1 cells with human recombinant dopamine transporter were plated. Test compounds were pre-incubated with cells (4×10^5/ml) in modified Tris-HEPES buffer pH 7.1 for 20 minutes at 25° C. and then they were incubated for additional 10 minutes after 50 nM of [^3H]Dopamine was added. A lysate is obtained from solubilized cells and counted to determine [^3H]Dopamine uptake. Reduction of [^3H]Dopamine uptake by 50 percent or more (≧50%) relative to 10 μM nomifensine indicates significant inhibitory activity.

Test [2] relates to mice. Nature of the test: Acetic acid induced writhing test (AA writhing test). It is filed as in vivo. To be noted: Mus musculus, 0.5 h, 30sc, reduction in number of writhing vs control group, 0.8% acetic acid ip 30 min after compound. An excerpt: Acetic Acid Induced Writhing Test (AA Writhing Test)
The Acetic acid-induced writhing test is a well-established nociceptive test using a chemical stimulus. Although several animal models of nociceptive tests have been developed to examine and compare the anti-nociceptive effects of different drugs, the anti-nociceptive effects of antidepressants appear to be test-dependent. Indeed, the acetic acid-induced writhing test is more sensitive to antidepressants than other tests using thermal, mechanical or electrical stimuli.
The animals were subcutaneously treated with the test compound with an injection volume of 10 ml/kg. The group treated with 30% PEG400 or saline served as a control group. Thirty minutes later, the mice were intraperitoneally treated with 0.8% (v/v) acetic acid. Each mouse was then placed in a cage for individual observation. The writhing numbers for 10 minutes were counted. The writhe is operationally defined as a contraction of the abdomen followed by stretching of the hind limbs. The potent ability of the compounds was determined as percent value of reduction in the number of writhing comparing to the control group.
For orientation: Writhing tests count abdominal constrictions after an irritant is injected.

The subject of test [3] is mice. Nature of the test: Marble burying test. The class given is in vivo. The settings on record: reduction in number of marbles buried vs control group, 30 min after treatment. An excerpt: The Marble burying test is a screening tool for putative anxiolytics. In this test, control mice naturally bury glass marbles in the cage bedding and the administration of anxiolytic compounds, including Diazepam, reduces the number of buried marbles. Positive compounds in the marble burying test including selective serotonin reuptake inhibitor may be especially beneficial to obsessive-compulsive disorder.
A group of mice was intraperitoneally treated with test compound dissolved in 30% PEG400 with an injection volume of 10 ml/kg. The group treated with only 30% PEG400 served as a control group. Thirty minutes after the treatment, the animals were individually placed in a polycarbonate cage which was same as used for animal housing with an open top located within a quiet room. Each cage consisted of ⅛ inch corn bedding 5 cm deep. Twenty four clean glass marbles (15 mm diameter) were evenly spaced in four rows of six on top of the bedding. Each mouse was left in the cage for 30 minutes and the number of marbles buried (buried more than ½ or ⅔) was counted. The potent ability of the compounds was determined as percent value of reduction in the number of marbles buried comparing to the control group.

The subject of test [4] is mice. Nature of the test: Forced swimming test in mice (FST). The class given is in vivo. The settings on record: Mus musculus, 0.5 h, 30ip, reduction in duration of immobility vs control group, 30 min after administration. On the procedure:
Forced swimming Test in Mice (FST)
The Forced swimming test is an animal model based on the rodent's behavioral repertoire for screening drugs with potential antidepressant activity. As in several other models used for this goal, an uncontrollable stress stimulus produces behavioral changes that are sensitive to antidepressant treatment.
The mice were intraperitoneally treated with the test compound with an injection volume of […]. The group treated with 30% PEG400 served as a control group. Thirty minutes following administration, mice were individually forced to swim in a transparent glass vessel (14 cm high, 11.5 cm in diameter) filled with 10 cm of water at 25° C. The total duration of immobility (second) was measured during the last 4 minutes of a single 6-min test session. Mice were considered immobile when they made no further attempts to escape other than the movements necessary to keep their heads above the water. The potent ability of the compounds was determined as percent value of reduction in the duration of immobility comparing to the control group.

The target in test [5] is T2, human serotonin transporter (Homo sapiens, UniProt P31645).
T2 construct: expressed in transfected cells; host or cells: HEK-293
T2 sequence (P31645 whole entry): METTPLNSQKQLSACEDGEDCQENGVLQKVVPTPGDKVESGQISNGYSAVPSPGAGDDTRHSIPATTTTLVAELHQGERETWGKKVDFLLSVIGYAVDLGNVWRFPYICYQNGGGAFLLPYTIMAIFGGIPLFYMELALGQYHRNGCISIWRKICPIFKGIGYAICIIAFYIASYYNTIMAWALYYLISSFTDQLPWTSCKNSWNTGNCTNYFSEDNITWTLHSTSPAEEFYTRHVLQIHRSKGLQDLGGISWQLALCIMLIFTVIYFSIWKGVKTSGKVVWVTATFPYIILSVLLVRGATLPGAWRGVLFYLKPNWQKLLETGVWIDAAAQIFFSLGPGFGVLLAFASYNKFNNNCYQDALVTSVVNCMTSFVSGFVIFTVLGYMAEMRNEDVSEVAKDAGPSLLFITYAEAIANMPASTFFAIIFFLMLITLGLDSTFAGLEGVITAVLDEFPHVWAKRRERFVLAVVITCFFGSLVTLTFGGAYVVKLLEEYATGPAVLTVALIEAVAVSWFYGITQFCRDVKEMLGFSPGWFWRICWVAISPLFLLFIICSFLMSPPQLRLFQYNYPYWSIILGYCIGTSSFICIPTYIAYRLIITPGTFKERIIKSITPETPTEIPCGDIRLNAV
Nature of the test: Serotonin transporter reuptake inhibition assay ([3H]Serotonin uptake). It is filed as cell-based. The settings on record: HEK293; 100 nM; recombinant HEK-293 cells with human serotonin transporter; read-out: Inhibition % at 100 nM 5-HT reuptake. On the procedure: Serotonin Transporter Reuptake Inhibition Assay
The recombinant HEK-293 cells with human serotonin transporter were plated. Test compounds described in table 1 were pre-incubated with cells (2×10^5/ml) in modified Tris-HEPES buffer pH 7.1 for 20 minutes at 25° C. and then they were incubated for additional 10 minutes after 65 nM of [^3H]Serotonin was added. Bound cells were filtered and counted to determine [^3H]Serotonin uptake. Reduction of [^3H]Serotonin uptake by 50 percent or more (≧50%) relative to 10 μM fluoxetine indicates significant inhibitory activity.

Test [6] has as its target T3, human recombinant norepinephrine transporter (Homo sapiens, UniProt P23975).
T3 construct: expressed in transfected cells; host or cells: MDCK
Nature of the test: Norepinephrine transporter reuptake inhibition assay ([3H]Norepinephrine uptake). The class given is cell-based. The settings on record: 100 nM; MDCK cells with human recombinant norepinephrine transporter; read-out: Inhibition % at 100 nM NE reuptake. On the procedure: Norepinephrine Transporter Reuptake Inhibition Assay
MDCK cells with stably expressed human recombinant norepinephrine transporter were plated one day. Test compounds were pre-incubated with cells (2×10^5/ml) in modified Tris-HEPES buffer pH 7.1 for 20 minutes at 25° C. and then they were incubated for additional 10 minutes after 25 nM of [^3H]Norepinephrine was added. A lysate was obtained from solubilized cells and the filtered lysate was counted to determine [^3H]Norepinephrine uptake. Reduction of [^3H]Norepinephrine uptake by 50 percent or more (≧50%) relative to 10 μM desipramine indicates significant inhibitory activity.

T1 sequence (Q01959 whole entry): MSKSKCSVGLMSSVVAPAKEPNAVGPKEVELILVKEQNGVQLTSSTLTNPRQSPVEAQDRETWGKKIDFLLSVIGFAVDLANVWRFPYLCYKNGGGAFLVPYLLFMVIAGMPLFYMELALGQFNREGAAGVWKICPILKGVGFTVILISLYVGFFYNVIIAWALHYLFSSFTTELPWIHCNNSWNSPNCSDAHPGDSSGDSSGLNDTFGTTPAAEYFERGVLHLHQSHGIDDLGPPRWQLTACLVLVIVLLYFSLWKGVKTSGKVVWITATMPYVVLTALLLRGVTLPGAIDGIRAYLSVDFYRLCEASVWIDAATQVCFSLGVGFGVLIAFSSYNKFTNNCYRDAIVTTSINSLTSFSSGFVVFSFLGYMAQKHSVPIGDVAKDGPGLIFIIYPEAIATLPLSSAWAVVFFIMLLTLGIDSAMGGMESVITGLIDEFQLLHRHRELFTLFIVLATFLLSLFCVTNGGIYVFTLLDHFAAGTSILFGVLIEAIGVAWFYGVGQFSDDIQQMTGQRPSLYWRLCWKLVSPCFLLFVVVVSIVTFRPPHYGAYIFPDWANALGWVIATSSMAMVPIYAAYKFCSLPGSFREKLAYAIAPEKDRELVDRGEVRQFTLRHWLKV
T3 sequence (P23975 whole entry): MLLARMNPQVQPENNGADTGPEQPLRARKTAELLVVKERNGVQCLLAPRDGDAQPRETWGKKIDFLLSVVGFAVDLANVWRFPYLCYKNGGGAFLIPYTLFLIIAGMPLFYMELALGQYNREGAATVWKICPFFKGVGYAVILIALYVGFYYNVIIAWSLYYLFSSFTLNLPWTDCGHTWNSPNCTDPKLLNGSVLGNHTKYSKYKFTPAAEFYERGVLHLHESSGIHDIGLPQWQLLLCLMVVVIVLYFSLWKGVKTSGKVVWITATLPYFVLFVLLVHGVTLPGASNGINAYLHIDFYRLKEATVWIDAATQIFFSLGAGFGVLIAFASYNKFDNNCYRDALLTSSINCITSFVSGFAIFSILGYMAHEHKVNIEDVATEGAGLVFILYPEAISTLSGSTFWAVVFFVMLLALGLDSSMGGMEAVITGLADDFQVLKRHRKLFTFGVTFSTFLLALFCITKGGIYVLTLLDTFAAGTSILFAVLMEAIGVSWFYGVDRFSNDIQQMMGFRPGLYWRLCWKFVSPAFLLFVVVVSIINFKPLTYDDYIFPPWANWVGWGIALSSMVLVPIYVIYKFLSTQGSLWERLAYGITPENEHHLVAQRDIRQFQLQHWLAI

With `CN(C)CCC(c1ccc(Cl)c(Cl)c1)n1ncnn1` (stereo not drawn) [Example 1, [3-(3,4-Dichloro-phenyl)-3-tetrazol-2-yl-propyl]-dimethyl-amine], the values for the inhibition at 0.1 µM in test [1], in test [5] and in test [6] were 58%, 27% and 37%, respectively. The inhibition in vivo at 30 mg/kg worked out at 55.3% with mice [2] and 24.9% with mice [4]. In addition, in the test with mice [3], the “Reduction % at 30ip” value is recorded as 54.8%.

`CN(C)CCC(c1ccc2ccccc2c1)n1ncnn1` (stereo not drawn) [Example 6, Dimethyl-(3-naphthalen-2-yl-3-tetrazol-2-yl-propyl)-amine]: the figures for the inhibition at 0.1 µM in test [1], in test [5] and in test [6] were 20%, 41% and 30%, respectively. In addition, the inhibition in vivo at 30 mg/kg was 60.2% in the test with mice [2] and 41.4% with mice [4]. In the test with mice [3], the “Reduction % at 30ip” value is on record as 87.7%.

On to `CNCC[C@@H](c1ccc2ccccc2c1)n1nnc(C)n1` [Example 188, (3S)-Methyl-[3-(5-methyl-tetrazol-2-yl)-3-naphthalen-2-yl-propyl]-amine], for which the inhibition at 0.1 µM is 7% in test [1], 82% in test [5] and 79% in test [6]. The inhibition in vivo at 30 mg/kg in the test with mice [2] is 39.5%; with mice [4], 36.7%. In the test on mice [3], the “Reduction % at 30ip” value worked out at 70.7%.

Take `CNCCC(c1ccc2ccccc2c1)n1ncnn1` (stereo not drawn) [Example 119, Methyl-(3-naphthalen-2-yl-3-tetrazol-2-yl-propyl)-amine]: the inhibition at 0.1 µM turned out to be 10% in test [1], 78% in test [5] and 84% in test [6]. In addition, the inhibition in vivo at 30 mg/kg with mice [4] was 43.2%.

Consider `CNCCC(c1ccc2cc(F)ccc2c1)n1ncnn1` (stereo not drawn) [Example 136, [3-(6-Fluoro-naphthalen-2-yl)-3-tetrazol-2-yl-propyl]-methyl-amine], for which the values for the inhibition at 0.1 µM in test [1], in test [5] and in test [6] were 6%, 59% and 25%, respectively.

On to `CNCCC(c1ccc2cc(OC)ccc2c1)n1nnc(C)n1` (stereo not drawn) [Example 167, [3-(6-Methoxy-naphthalen-2-yl)-3-(5-methyl-tetrazol-2-yl)-propyl]-methyl-amine], for which the inhibition at 0.1 µM in test [1] amounted to 3%; in test [5], 82%; in test [6] it was 84%. In addition, the inhibition in vivo at 30 mg/kg in the test on mice [2] came to 52.1%; in the test on mice [4], 17.9%. The “Reduction % (at 10ip)” value in the test with mice [3] (10ip) was 56.9%.

On to `CN(C)CCC(c1ccc2cc(F)ccc2c1)n1ncnn1` (stereo not drawn) [Example 50, [3-(6-Fluoro-naphthalen-2-yl)-3-tetrazol-2-yl-propyl]-dimethyl-amine], for which the inhibition at 0.1 µM in test [1] stood at 7%; in test [5], 61%; in test [6], 12%. Also, the values for the inhibition in vivo at 30 mg/kg in the test with mice [2] and in the test with mice [4] were 53.8% and 35%, respectively. Moreover, the “Reduction % at 30ip” value with mice [3] was found to be 86.2%.

Regarding `CNCCC(c1ccc2cc(F)ccc2c1)n1nnc(C)n1` (stereo not drawn) [Example 137, [3-(6-Fluoro-naphthalen-2-yl)-3-(5-methyl-tetrazol-2-yl)-propyl]-methyl-amine], the inhibition at 0.1 µM came out at 10% in test [1], 58% in test [5] and 39% in test [6].

On to `CNCCC(c1cc2ccccc2cc1OC)n1nnc(C)n1` (stereo not drawn) [Example 135, [3-(3-Methoxy-naphthalen-2-yl)-3-(5-methyl-tetrazol-2-yl)-propyl]-methyl-amine], for which the inhibition at 0.1 µM in test [1] is -1%; in test [5], 47%; in test [6], 17%.

Turning to `Cc1nnn(C(CCN(C)C)c2ccc3cc(F)ccc3c2)n1` (stereo not drawn) [Example 51, [3-(6-Fluoro-naphthalen-2-yl)-3-(5-methyl-tetrazol-2-yl)-propyl]-dimethyl-amine], the inhibition at 0.1 µM in test [1] is 6%; in test [5], 61%; in test [6], 10%. The inhibition in vivo at 30 mg/kg is 51.4% with mice [2] and 24.5% with mice [4]. Moreover, the “Reduction % at 30ip” value in the test on mice [3] was found to be 72.4%.

For the compound `CNCCC(c1ccc2cc(C)ccc2c1)n1ncnn1` (stereo not drawn) [Example 122, Methyl-[3-(6-methyl-naphthalen-2-yl)-3-tetrazol-2-yl-propyl]-amine], the inhibition at 0.1 µM in test [1] was 3%; in test [5], 93%; in test [6], 55%. Further, 30 mg/kg produced 43.7% inhibition in vivo with mice [4].

Take `CNCC[C@@H](c1ccc(Cl)c(Cl)c1)n1nnc(C)n1` [Example 129, (3S)-3-(3,4-dichlorophenyl)-N-methyl-3-(5-methyl-2H-tetrazol-2-yl)propan-1-amine]: the inhibition at 0.1 µM in test [1] is 62%; in test [5] it was 43%; in test [6], 84%. For the same compound, the inhibition in vivo at 30 mg/kg was 94.4% in the test with mice [2] and 36.7% in the test on mice [4]. Besides, the “Reduction % at 30ip” value in the test on mice [3] is on record as 94.3%.

For `COc1ccc2cc(C(CCN(C)C)n3ncnn3)ccc2c1` (stereo not drawn) [Example 21, [3-(6-Methoxy-naphthalen-2-yl)-3-tetrazol-2-yl-propyl]-dimethyl-amine], the figures for the inhibition at 0.1 µM in test [1], in test [5] and in test [6] were 36%, 44% and 39%, respectively.

Regarding `CN(C)CCC(c1ccc2cc(Cl)ccc2c1)n1ncnn1` (stereo not drawn) [Example 14, [3-(6-Chloro-naphthalen-2-yl)-3-tetrazol-2-yl-propyl]-dimethyl-amine], the inhibition at 0.1 µM in test [1] was 18%; in test [5], 46%; in test [6] it was 32%.

Regarding `CNCCC(c1ccc2cc(OC)ccc2c1)n1ncnn1` (stereo not drawn) [Example 166, [3-(6-Methoxy-naphthalen-2-yl)-3-tetrazol-2-yl-propyl]-methyl-amine], the results for the inhibition at 0.1 µM in test [1], in test [5] and in test [6] were 4%, 88% and 70%, respectively. Further, the inhibition in vivo at 30 mg/kg with mice [4] was 28.9%.
